Experimental data taken from paper PMC7180617, “Biological Evaluation of 3-Benzylidenechromanones and Their Spiropyrazolines-Based Analogues” (Molecules, 2020).
“And” between values parts separate entries of the source, which are not always exact repeats. Equal values may be shown once. Blank lines part the entries; values can stand above or below the compound they belong to.

Legend:
[1] = test system: COLO-205 cells; assay: MTT cytotoxicity assay, COLO-205; assay type: cell-based, human; conditions: 46 h + 2 h incubation
Description: (§1) The first stage of the study used the MTT viability test to determine the cytotoxicity of ten compounds, i.e., 3-arylidenechromanone, 3-arylideneflavanone, spirochromanone and spiro- flavanone analogues, against four human cancer cell lines: HL-60, NALM-6, WM-115 and COLO-205.
(§2) Cytotoxicity was tested against human skin melanoma cells (WM-115, ECACC, Salisbury, UK), two human leukemia cell lines, viz. promyelocytic leukemia (HL-60) and lymphoblastic leukemia (NALM-6), and human colon adenocarcinoma cells (COLO-205). The cell lines COLO-205, WM-115 and HL-60 used in this work came from the ATCC American Type Culture Collection (Manassas, VA, USA), whereas the NALM-6 cell line was purchased from the German Collection of Microorganisms and Cell Cultures (Braunschweig, Germany). The leukaemia cells and colon adenocarcinoma were cultured in RPMI 1640 medium (Invitrogen, Grand Island, NY, USA) supplemented with 10% fetal bovine serum (FBS; Invitrogen) and gentamicin (25 µg/mL; KRKA, Novo Mesto, Slovenia). For melanoma WM-115 cells, Dulbecco’s minimal essential medium (DMEM; Invitrogen) was used. All cell lines were cultured at 37 °C in a humidified atmosphere of 5% CO2 in air.
(§3) For all experiments, the studied compounds were dissolved in DMSO (Sigma-Aldrich) and were further diluted in culture medium to obtain <0.1% DMSO concentration. In each experiment, controls with and without 0.1% DMSO were performed. The cytotoxicity of all compounds and of the reference compounds 4-chromanone and 3-benzylideneflavanone was determined by the MTT assay, i.e., 3-(4,5-dimethylthiazol-2-yl)-2,5-diphenyltetrazolium bromide (Sigma, St. Louis, MO, USA), which measures cellular dehydrogenase activity. Exponentially growing cells were seeded a day before the experiment onto a 96-well microplates (Nunc, Roskilde, Denmark) at a density up to 6–8 × 10^3 cells/well (depending on the cell line). Subsequently, various concentrations of the studied compounds freshly prepared in DMSO and diluted with complete culture medium were added. All compounds were tested for their cytotoxicity at a final concentration of 10^−7–10^−3 M. After 46 h of incubation with the studied compounds, the cells were treated with the MTT reagent and incubation was continued for another two hours. MTT – formazan crystals were dissolved in 20% sodium dodecyl sulphate (SDS, Sigma-Aldrich) and 50% DMF (Sigma-Aldrich) at pH 4.7; following this, absorbance was read at 570 nm on a multifunctional Victor ELISA-plate reader (Perkin Elmer, Turku, Finland). The IC50 values, i.e., the concentration of the test compound required to reduce the cell survival fraction to 50% of controls, were calculated from concentration-response curves and used as a measure of the sensitivity of the cells to a given treatment. As a control, cultured cells were grown in the absence of drugs. The data points represent the means of at least five to ten repeats ± standard deviation (S.D.).

[2] = test system: HL-60 cells; assay: MTT cytotoxicity assay, HL-60; assay type: cell-based, human; conditions: 46 h + 2 h incubation
Description: as §1, §2, §3

[3] = test system: WM-115 cells; assay: MTT cytotoxicity assay, WM-115; assay type: cell-based, human; conditions: 46 h + 2 h incubation
Description: as §1, §2, §3

[4] = test system: NALM-6 cells; assay: MTT cytotoxicity assay, NALM-6; assay type: cell-based, human; conditions: 46 h + 2 h incubation
Description: as §1, §2, §3

[5] = Lipophilicity (logP) by RP-TLC; conditions: for chromatographic logP: RP-18 F254S TLC plates
Description: Lipophilicity is one of the most important physicochemical properties in pharmaceutical research. It can be considered a key determinant of the pharmacokinetic properties of a drug. It is commonly measured by the partition coefficient between water and n-octanol, being expressed as logP [14]. […] Knowledge of the partition coefficient is valuable: it is frequently used in structure–activity relationship (SAR) and quantitative structure–activity relationship (QSAR) studies. The experimental lipophilicity of the synthesized compounds, viz. benzylideneflavanones, benzylidenechromanones and spiropyrazolines, was determined using RP-TLC. […] It is important to examine the relationship between structure of the compound and its lipophilicity and cytotoxicity.
The RP-TLC experiments were performed on TLC plates (5 × 10 cm) RP-18 F254S (Merck, Darmstadt, Germany). The synthesized compounds were dissolved in N,N-dimethylformamide DMF (2 mg/mL). […] A DMF-water solvent system was used as mobile phase. […] All experiments were performed at room temperature. The logP parameter was calculated using the equation from the calibration curve.

[6] = test system: erythrocytes; assay: Red blood cell morphology (phase-contrast microscopy); assay type: cell-based; conditions: 2% erythrocyte suspension, 37 °C, 1 h, phase contrast 400×
Description: Studies on erythrocyte morphology complement the erythrotoxicity studies because they provide information on potential immediate interactions of the tested compounds with the erythrocyte lipid bilayer, and the possibility of creating pathological forms of erythrocytes, which are not able to carry oxygen. The effects of the synthesized compounds, and the two reference compounds chromanone and flavanone, on the morphology of erythrocytes is shown in Figure 6. Briefly, 2% RBC suspension was incubated with 0.9% NaCl (control samples) or tested compounds at various concentrations corresponding to their activity towards cancer cell lines.
A 2% erythrocyte suspension was incubated at 37 °C for one hour with various concentrations of synthesized compounds. The morphology of the RBCs was examined by means of a phase contrast Opta-Tech inverted microscope, at 400× magnification, equipped with software (OptaView 7) for image analysis.

[7] = test system: HL-60 cells; assay: Cell cycle analysis by flow cytometry (propidium iodide); assay type: cell-based, human; conditions: for cell cycle, G1, mean / cell cycle, G2/M, mean / cell cycle, S, mean: mean of n=2; for cell cycle distribution, G1 / cell cycle distribution, G2 / cell cycle distribution, G2/M: HL-60, 20 h, mean ± SD, n = 2
Description: The next stage examined the effects of the selected compounds on cell cycle progression in HL-60 leukemia cells. […] One million HL-60 (subline CCL 240; cell type: promyeloblast) cells in 3 mL of RPMI 1640 supplemented with 20% FBS were seeded on 6-well plate. […] Fixed cells were stored in −20 °C for 2–3 days. Before analysis, cells were centrifuged (10 min, 1500 rpm, 4 °C) and washed twice with cold PBS. After the second wash, the cells were suspended in 1mL of PBS containing 100 μg of RNase A and incubated in 37 °C for 10 min. Next, 5 μL of solution of propidium iodide (1 mg/mL) was added to each sample and incubated in dark for 30 min at RT. Stained cells were analyzed by flow cytometry (FACS Calibur, BD Biosciences, San Jose, CA, USA). Data from 10,000 gated cells were collected using CellQuestPro software (Ver 6.0, Becton Dickinson) and cell cycle analysis was performed with ModFit LT software (Ver 3.2, Verity Software House, Topsham, ME, USA).

[8] = test system: red blood cells (RBC membrane integrity); assay: Red blood cell lysis assay; assay type: cell-based; conditions: 2% RBC suspension, 37 °C, 1 h
Description: All synthesized compounds with potential biological activity have to be tested for blood compatibility since xenobiotics will react with blood cells upon administration. In this case, biocompatibility refers to the quantification of cellular and plasma components of the blood. The measurement of the integrity of RBC membrane is considered a simple and reliable method for estimating hemocompatibility.
The studies on biological material were approved by the Bioethics Committee of the Medical University of Lodz, Poland (RNN/109/16/KE). The blood samples were obtained from healthy donors at the Blood Donation Centre in Lodz. The procedure for plasma preparation for erythrotoxicity studies was described previously. The influence of synthesized compounds as well as two reference compounds flavanone and chromanone on RBC membrane integrity was performed by lysis assay which was conducted according to our previous protocol. Briefly, 2% RBC suspension in 0.9% NaCl was incubated at 37 °C for one hour with the tested compounds at various concentrations corresponding to their activity towards cancer cell lines or 0.9% NaCl (control). The samples were centrifuged at 3000 rpm for 10 min and the absorbance of the supernatant was measured at 550 nm. The results are presented as percentage of haemolysis where a sample containing 10 μL of 2.0% v/v Triton X-100 was regarded as a positive control contributing to 100% of haemolysis. A sample containing saline solution represented spontaneous haemolysis of RBCs (control). The studies were performed on four biological samples obtained from different blood donors (n = 4). The results are presented as mean ± standard deviation (SD). The coefficient of variability for the method was counted: W = 9.51%, n = 5.

[9] = Homo sapiens, WM-115, 48 h, MTT
[10] = Homo sapiens, NALM-6, 48 h, MTT
[11] = Figure S3, HL-60, 0.5 × IC50 (µM: quercetin 29, 1 1.5, 7 18, 10 4.7, 11 4.5, 12 6)
[12] = Figure S3, HL-60, 0.5 × IC50, each of two repetitions
[13] = Figure S3, HL-60, 1 × IC50 (µM in parenthesis: quercetin 58, 1 3, 7 35, 10 9.4, 11 9, 12 12)
[14] = Figure S3, HL-60, 1 × IC50 (µM: quercetin 58, 1 3, 7 35, 10 9.4, 11 9, 12 12)
[15] = Figure S3, HL-60, 1 × IC50, each of two repetitions
[16] = 0.5 × IC50 (µM: quercetin 29, 2 1.5, 7 18, 12 6, 11 4.5, 10 4.7)
[17] = 1 × IC50 (µM: quercetin 58, 2 3, 7 35, 12 12, 11 9, 10 9.4)

SMILES: N.N.O=C([O-])C1(C(=O)[O-])CCC1.[Pt+2] [Carboplatin, reference compound]
IC50 [1]: 355 ± 73.7 µM
IC50 ([2]; MTT): 4.3 ± 1.3 µM
IC50 ([3]; MTT): 422 ± 50.2 µM
IC50 ([4]; MTT): 0.7 ± 0.2 µM
logP ([5]; RP-TLC, DMF-water mobile phase, room temperature): −2.30

SMILES: N.N.[Cl][Pt][Cl] [Cisplatin, reference compound]
IC50 [1]: 61.5 ± 3.2 µM
IC50 ([2]; MTT): 0.8 ± 0.1 µM
IC50 ([3]; MTT): 18.2 ± 4.3 µM
IC50 ([4]; MTT): 0.7 ± 0.3 µM

chromatographic logP [5]: 4.79
SMILES: COc1ccc(/C=C2/C(=O)c3ccccc3OC2c2ccccc2)cc1 (centres unmarked) [Compound 1, (E)-3-(4-methoxybenzylidene)-2-phenylchroman-4-one]
erythrocyte morphology (in words) [6]: extensive formation of echinocytes and anisocytes
IC50 ([1]; Homo sapiens, COLO 205, 48 h): 51 ± 2.3 µM
IC50 ([2]; Homo sapiens, HL-60, 48 h, MTT): 53.4 ± 2.49 µM
IC50 [3, 9]: 58.1 ± 4.93 µM
IC50 [4, 10]: 49.8 ± 2.35 µM
cell cycle, G1, mean [7, 11]: 23,52%
cell cycle, G2/M, mean [7, 11]: 53,45%
cell cycle, S, mean [7, 11]: 23,04%
cell cycle, G2/M, single repetitions [7, 12]: 39,74% and 67,16%
cell cycle, S, single repetitions [7, 12]: 21,38% and 24,69%
cell cycle, G1, mean [7, 13]: 21,31%
cell cycle, G2/M, mean [7, 14]: 53,71%
cell cycle, S, mean [7, 14]: 25,02%
cell cycle, G2/M, single repetitions [7, 15]: 68,86% and 38,56%
cell cycle, S, single repetitions [7, 15]: 17,63% and 32,40%

erythrocyte morphology (in words) [6]: echinocyte formation was observed
chromatographic logP [5]: 2.19
SMILES: O=C1CCOc2ccccc21 [Compound 4-Chromanone, 4-Chromanone, reference compound]
IC50 ([1]; Homo sapiens, COLO 205, 48 h): 721.5 ± 6.4 µM
IC50 ([2]; Homo sapiens, HL-60, MTT): 677 ± 32.6 µM
IC50 [3, 9]: > 1000 µM
IC50 ([4]; Homo sapiens, NALM-6, MTT): 674 ± 22.5 µM
effect on RBC hemolysis / erythrocyte membrane integrity (in words) [8]: Neither flavanone nor chromanone was found to have any unfavourable effect on the erythrocyte membrane over the whole concentration range

chromatographic logP [5]: 4.9
SMILES: O=C1/C(=C/c2ccccc2)C(c2ccccc2)Oc2ccccc21 (centres unmarked) [Compound 5, (E)-3-benzylidene-2-phenylchroman-4-one]
erythrocyte morphology (in words) [6]: echinocytes accounted for the major part of erythrocytes
IC50 ([1]; Homo sapiens, COLO 205, 48 h): 77.1 ± 1.9 µM
IC50 ([2]; Homo sapiens, HL-60, 48 h, MTT): 33.7 ± 3.87 µM
IC50 [3, 9]: 47.4 ± 4.62 µM
IC50 [4, 10]: 27 ± 3.1 µM

chromatographic logP [5]: 5.83
SMILES: COc1cccc(/C=C2/C(=O)c3ccccc3OC2c2ccccc2)c1 (centres unmarked) [Compound 9, (E)-3-(3-methoxybenzylidene)-2-phenylchroman-4-one]
erythrocyte morphology (in words) [6]: echinocytes accounted for the major part of erythrocytes
IC50 ([1]; Homo sapiens, COLO 205, 48 h): 170 ± 3.81 µM
IC50 ([2]; Homo sapiens, HL-60, 48 h, MTT): 35.9 ± 2.96 µM
IC50 [3, 9]: 16.9 ± 3.78 µM
IC50 [4, 10]: 15.7 ± 6.23 µM

SMILES: O=c1c(O)c(-c2ccc(O)c(O)c2)oc2cc(O)cc(O)c12 [Quercetin, reference compound]
IC50 ([2]; Homo sapiens, HL-60, 48 h, MTT): 58 ± 4 µM
IC50 ([3]; Homo sapiens, WM-115, MTT): 178 ± 21.5 µM
IC50 ([4]; Homo sapiens, NALM-6, MTT): 77.1 ± 7.8 µM
cell cycle, G1, mean [7, 11]: 14,26%
cell cycle, G2/M, mean [7, 11]: 60,76%
cell cycle, S, mean [7, 11]: 24,99%
cell cycle, G1, single repetitions [7, 12]: 12,59% and 15,93%
cell cycle, G2/M, single repetitions [7, 12]: 60,50% and 61,01%
cell cycle, S, single repetitions [7, 12]: 23,57% and 26,40%
cell cycle, G1, mean [7, 13]: 11,59%
cell cycle, G2/M, mean [7, 14]: 49,04%
cell cycle, S, mean [7, 14]: 39,38%
cell cycle, G1, single repetitions [7, 15]: 12,78% and 10,40%
cell cycle, G2/M, single repetitions [7, 15]: 46,07% and 52,00%
cell cycle, S, single repetitions [7, 15]: 41,15% and 37,60%
cell cycle distribution, G1 [7, 16]: 14.3 ± 2.4%
cell cycle distribution, G2 [7, 16]: 25.0 ± 2.0%
cell cycle distribution, G2/M [7, 16]: 60.8 ± 0.4%
cell cycle distribution, G1 [7, 17]: 11.6 ± 1.7%
cell cycle distribution, G2 [7, 17]: 39.4 ± 2.5%
cell cycle distribution, G2/M [7, 17]: 49.0 ± 4.2%
cells arrested in G2/M phase ([7]; HL-60, concentrations of IC50 and 0.5 × IC50): 50–60%

erythrocyte morphology (in words) [6]: echinocyte formation was observed
SMILES: O=C1CC(c2ccccc2)Oc2ccccc21 (centres unmarked) [flavanone, reference compound]
effect on RBC hemolysis / erythrocyte membrane integrity (in words) [8]: Neither flavanone nor chromanone was found to have any unfavourable effect on the erythrocyte membrane over the whole concentration range
